In patent publication US7432087B2, “Method for preparing (2S, 3R, 4S)-4-hydroxyisoleucine and analogues thereof” (Centre National de la Recherche Scientifque, priority 2002, dated 2008) one finds melting point and insulinotropic activity data, which are given here for two compounds.

For data set [1] the following is noted: background statement with literature references; cited from earlier work.

Molecules are shown by their SMILES.

One may read the melting point as the temperature, or range, at which the solid turns liquid. As to `C[C@@H]([C@H](C)O)[C@@H](NCc1ccccc1)C(=O)O` [(2R)-N-Bn-1, (2R,3R,4S)-N-benzyl-4-hydroxyisoleucine], the melting point is 193 to 194 °C (dec.).

On to `C[C@@H]([C@H](C)O)[C@H](N)C(=O)O` [compound 1, (2S,3R,4S)-4-hydroxyisoleucine], for which, in data set [1], the insulinotropic activity result is recorded as “possesses an insulinotropic activity”.
